Source: ChEMBL document CHEMBL2010777, “Synthesis and evaluation of human phosphodiesterases (PDE) 5 inhibitor analogs as trypanosomal PDE inhibitors. Part 2. Tadalafil analogs” (Bioorg Med Chem Lett, 2012)

Legend:
[1] = molecular target: T1, Class 1 phosphodiesterase PDEB1 (Trypanosoma brucei) (UniProt Q8WQX9); test: Inhibition of Trypanosoma brucei PDEB1 using cAMP as substrate at 100 uM preincubated for 10 mins prior substrate addition by spectrophotometry
T1 sequence (whole entry): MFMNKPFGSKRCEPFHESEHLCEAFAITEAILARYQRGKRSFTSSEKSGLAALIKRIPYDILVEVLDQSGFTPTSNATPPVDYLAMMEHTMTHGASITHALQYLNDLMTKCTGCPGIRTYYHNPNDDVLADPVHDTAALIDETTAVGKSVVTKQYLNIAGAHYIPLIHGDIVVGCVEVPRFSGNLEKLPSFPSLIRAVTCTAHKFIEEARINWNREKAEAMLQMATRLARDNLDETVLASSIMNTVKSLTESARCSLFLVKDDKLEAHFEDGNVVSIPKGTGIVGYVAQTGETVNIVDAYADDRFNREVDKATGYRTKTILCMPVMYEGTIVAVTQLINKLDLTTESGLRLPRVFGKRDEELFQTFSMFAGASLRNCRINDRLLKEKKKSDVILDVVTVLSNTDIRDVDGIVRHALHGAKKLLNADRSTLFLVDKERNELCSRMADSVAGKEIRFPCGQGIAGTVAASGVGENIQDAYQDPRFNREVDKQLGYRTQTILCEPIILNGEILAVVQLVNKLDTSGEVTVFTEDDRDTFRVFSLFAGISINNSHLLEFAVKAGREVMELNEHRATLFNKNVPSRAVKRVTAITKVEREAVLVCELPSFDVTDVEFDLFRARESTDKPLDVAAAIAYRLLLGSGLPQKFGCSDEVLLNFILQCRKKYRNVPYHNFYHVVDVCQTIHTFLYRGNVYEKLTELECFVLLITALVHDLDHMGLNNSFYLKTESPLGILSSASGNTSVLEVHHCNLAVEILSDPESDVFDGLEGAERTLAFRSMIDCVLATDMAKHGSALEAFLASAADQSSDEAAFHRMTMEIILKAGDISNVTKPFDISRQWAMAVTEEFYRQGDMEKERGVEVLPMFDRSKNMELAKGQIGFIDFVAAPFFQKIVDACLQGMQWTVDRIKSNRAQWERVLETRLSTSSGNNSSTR

[2] = molecular target: T1, Class 1 phosphodiesterase PDEB1 (Trypanosoma brucei); test: Inhibition of Trypanosoma brucei PDEB1 using cAMP as substrate at 10 uM preincubated for 10 mins prior substrate addition by spectrophotometry
[3] = Solubility of the compound at higher concentration; type: physicochemical

## NC(=O)[C@H]1Cc2c([nH]c3ccccc23)[C@H](c2ccc3c(c2)OCO3)N1
[1]
  inhibition: 0%

## Cc1n[nH]cc1C(=O)NCC1c2[nH]c3ccccc3c2C[C@@H]2C(=O)N(C)CC(=O)N12 (stereo partly drawn)
[2]
  inhibition: 0%

## CN1CC(=O)N2[C@H](c3ccc4c(c3)OCO4)c3c(c4ccccc4n3C)C[C@@H]2C1=O
[2]
  inhibition: 6.9%

## CN1CC(=O)N2C(CNC(=O)OCc3ccccc3)c3[nH]c4ccccc4c3C[C@@H]2C1=O (stereo partly drawn)
[2]
  inhibition: 21.2%

## CC(=O)NCC1c2[nH]c3ccccc3c2C[C@@H]2C(=O)N(C)CC(=O)N12 (stereo partly drawn)
[2]
  inhibition: 0%

## CN1CC(=O)N2[C@@H](c3ccc4c(c3)OCO4)c3[nH]c4ccccc4c3C[C@@H]2C1=O
[2]
  inhibition: 38.8%

## CC(=O)N1CCc2c([nH]c3ccccc23)C1c1ccc2c(c1)OCO2 (stereo not drawn)
[1]
  inhibition: 17%

## CN1CC(=O)N2[C@@H](c3ccc4c(c3)OCO4)c3c(c4ccccc4n3C)C[C@@H]2C1=O
[2]
  inhibition: 19.7%

## CC1NC(C(N)=O)Cc2c1[nH]c1ccccc21 (stereo not drawn)
[1]
  inhibition: 13.3%

## CN1CC(=O)N2[C@@H](c3ccc4c(c3)OCO4)c3[nH]c4ccc(Br)cc4c3C[C@@H]2C1=O
[2]
  inhibition: 11.6%

## CN1CC(=O)N2C(c3cccnc3)c3[nH]c4ccccc4c3C[C@@H]2C1=O (stereo partly drawn)
[1]
  inhibition: 9.4%

## CN1CC(=O)N2[C@H](c3ccc4c(c3)OCO4)c3[nH]c4ccc(Br)cc4c3C[C@@H]2C1=O
[2]
  inhibition: 11.8%

## NC(=O)[C@H]1Cc2c([nH]c3ccccc23)[C@@H](c2ccc3c(c2)OCO3)N1
[1]
  inhibition: 19.5%

## NC(=O)[C@H]1Cc2c([nH]c3ccccc23)C(c2cccnc2)N1 (stereo partly drawn)
[2]
  inhibition: 22.6%

## CN1CC(=O)N2[C@@H](c3ccc4c(c3)OCO4)c3[nH]c4ccc(-c5ccn[nH]5)cc4c3C[C@@H]2C1=O
[3]
  solubility: Insoluble
[2]
  inhibition: 71.8%

## CN1CC(=O)N2C(CNCc3cccnc3)c3[nH]c4ccccc4c3C[C@@H]2C1=O (stereo partly drawn)
[2]
  inhibition: 6.09%

## CN1CC(=O)N2[C@H](c3ccc4c(c3)OCO4)c3[nH]c4ccccc4c3C[C@@H]2C1=O
[1]
  inhibition: 0%
